In ChEMBL document CHEMBL5126512, “Current status of carbazole hybrids as anticancer agents” (Eur J Med Chem, 2022) one finds IC50 and inhibition in vivo data, which are given here for twelve compounds.

One series deals with KYSE-510. Put plainly: Antiproliferative activity against human KYSE-510 cells assessed as cell growth inhibition measured after 48 hrs by CCK-8 assay. Conditions: KYSE-510, 48 h. The format is functional, cell-based.
Another series has as its system KYSE-410. In words: Antiproliferative activity against human KYSE-410 cells assessed as cell growth inhibition measured after 48 hrs by CCK-8 assay. As to conditions: KYSE-410, 48 h. The format is functional, cell-based. A general note: Tetrazolium dyes change colour on reduction, which living cells bring about.
A further series relates to KYSE-140. In words: Antiproliferative activity against human KYSE-140 cells assessed as cell growth inhibition measured after 48 hrs by CCK-8 assay. As to conditions: KYSE-140, 48 h. Type of series: functional, cell-based.
For another series, the system named is KYSE-30. Put plainly: Antiproliferative activity against human KYSE-30 cells assessed as cell growth inhibition measured after 48 hrs by CCK-8 assay. The format is functional, cell-based. As to conditions: KYSE-30, 48 h.
Series [1] is described as follows: Antiproliferative activity against human KYSE-170 cells assessed as cell growth inhibition measured after 48 hrs by CCK-8 assay. Type of series: functional, cell-based. As to conditions: KYSE-170, 48 h.
Series [2] is described as follows: Antiproliferative activity against human Lu1 cells assessed as cell growth inhibition by MTT assay. Type of series: functional, cell-based.
The test system of the next series is SW480. Put plainly: Antiproliferative activity against human SW480 cells assessed as cell growth inhibition by MTT assay. The format is functional, cell-based.
A short description of series [3]: Antiproliferative activity against mouse […] cells assessed as cell growth inhibition by MTT assay. Type of series: functional, cell-based.
The test system of series [4] is HepG2. Put plainly: Antiproliferative activity against human HepG2 cells assessed as cell growth inhibition by MTT assay. The format is functional, cell-based.
For another series, the system named is UO-31. In words: Antiproliferative activity against human UO-31 cells assessed as cell growth inhibition measured after 48 hrs by SRB assay. The format is functional, cell-based. Conditions: UO-31, 48 h. A general note: In SRB staining, fixed cells bind dye roughly in proportion to their protein.
Series [5] deals with MDA-MB-231. In words: Antiproliferative activity against human MDA-MB-231 cells assessed as cell growth inhibition measured after 48 hrs by SRB assay. The format is functional, cell-based. As to conditions: MDA-MB-231, 48 h.
Series [6] relates to MCF7. Put plainly: Antiproliferative activity against human MCF7 cells assessed as cell growth inhibition measured after 48 hrs by SRB assay. Conditions: MCF7, 48 h. Type of series: functional, cell-based.
The subject of the next series is SNB-75. In words: Antiproliferative activity against human SNB-75 cells assessed as cell growth inhibition measured after 48 hrs by SRB assay. As to conditions: SNB-75, 48 h. Type of series: functional, cell-based.
A further series relates to SW-620. Put plainly: Antiproliferative activity against human SW-620 cells assessed as cell growth inhibition measured after 48 hrs by SRB assay. Conditions: SW-620, 48 h. The format is functional, cell-based.
The test system of another series is OVCAR-4. In words: Antiproliferative activity against human OVCAR-4 cells assessed as cell growth inhibition measured after 48 hrs by SRB assay. Type of series: functional, cell-based. As to conditions: OVCAR-4, 48 h.
A further series deals with HOP-62. In words: Antiproliferative activity against human HOP-62 cells assessed as cell growth inhibition measured after 48 hrs by SRB assay. Type of series: functional, cell-based. Conditions: HOP-62, 48 h.
In another series the test system is 786-0. In words: Antiproliferative activity against human 786-0 cells assessed as cell growth inhibition measured after 48 hrs by SRB assay. Type of series: functional, cell-based. As to conditions: 786-0, 48 h.
A further series has as its system OVCAR-3. Put plainly: Antiproliferative activity against human OVCAR-3 cells assessed as cell growth inhibition measured after 48 hrs by SRB assay. The format is functional, cell-based. As to conditions: OVCAR-3, 48 h.
A further series relates to Hs-578T. Put plainly: Antiproliferative activity against human Hs-578T cells assessed as cell growth inhibition measured after 48 hrs by SRB assay. Type of series: functional, cell-based.
Series [7] relates to HepG2. Put plainly: Antiproliferative activity against human HepG2 cells assessed as cell growth inhibition measured after 48 hrs by SRB assay. The format is functional, cell-based. As to conditions: HepG2, 48 h.
Series [8] deals with HepG2. In words: Antitumor activity against human HepG2 xenografted in BALB/c nude mouse assessed as tumor growth inhibition at 10 mg/kg, iv administered every 2 days and measured upto 30 days relative to control. The format is functional. As to conditions: HepG2, 720 h, time <= 30 day, read-out: TGI. A general note: In xenograft studies the graft and the host belong to different species.

For another series, the system named is MIA PaCa-2. Put plainly: Antiproliferative activity against human MIA PaCa-2 cells assessed as cell growth inhibition measured after 48 hrs by SRB assay. The format is functional, cell-based. Conditions: MIA PaCa-2, 48 h.
The next series has as its system Bel-7402. Put plainly: Antiproliferative activity against human Bel-7402 cells assessed as cell growth inhibition measured after 48 hrs by SRB assay. Conditions: Bel-7402, 48 h. Type of series: functional, cell-based.
A short description of series [9]: Cytotoxicity against human MCF-12A cells assessed as cell growth inhibition measured after 72 hrs by MTT assay. Type of series: toxicity, cell-based.
Series [10] deals with MCF7. In words: Cytotoxicity against human MCF7 cells assessed as cell growth inhibition measured after 72 hrs by MTT assay. The format is functional, cell-based. As to conditions: MCF7, 72 h.
In series [11] the test system is MDA-MB-231. Put plainly: Cytotoxicity against human MDA-MB-231 cells assessed as cell growth inhibition measured after 72 hrs by MTT assay. The format is functional, cell-based. Conditions: MDA-MB-231, 72 h.
The next series has as its system CCRF-CEM. Put plainly: Antiproliferative activity against human CCRF-CEM cells assessed as cell growth inhibition measured after 48 hrs by SRB assay. Type of series: functional, cell-based.
Series [12] concerns A549. In words: Antiproliferative activity against human A549 cells assessed as cell growth inhibition measured after 48 hrs by SRB assay. Type of series: functional, cell-based. Conditions: A549, 48 h.
The next series deals with COLO 205. Put plainly: Antiproliferative activity against human COLO 205 cells assessed as cell growth inhibition by MTT assay. Type of series: functional, cell-based.
Series [13] deals with MCF7. In words: Antiproliferative activity against human MCF7 cells assessed as cell growth inhibition by MTT assay. The format is functional, cell-based.
Series [14] deals with A549. In words: Antiproliferative activity against human A549 cells assessed as cell growth inhibition by MTT assay. Type of series: functional, cell-based.
For series [15], the target named is Urokinase-type plasminogen activator (Homo sapiens, UniProt P00749). In words: Inhibition of urokinase plasminogen activator in human MCF7 cells measured after 24 hrs by ELISA method. Type of series: cell-based.
Series [16] deals with MCF7. Put plainly: Anticancer activity against human MCF7 cells assessed as cell growth inhibition measured after 24 hrs by MTT assay. Type of series: functional, cell-based. As to conditions: MCF7, 24 h.
A short description of series [17]: Cytotoxicity against human HFB4 cells assessed as cell growth inhibition measured after 24 hrs by MTT assay. The format is toxicity, cell-based.
Series [18] concerns MCF7. Put plainly: Antiproliferative activity against human MCF7 cells assessed as cell growth inhibition measured after 72 hrs by MTT assay. Type of series: functional, cell-based. As to conditions: MCF7, 72 h.
Series [19] has as its system MDA-MB-231. In words: Antiproliferative activity against human MDA-MB-231 cells assessed as cell growth inhibition measured after 72 hrs by MTT assay. The format is functional, cell-based. As to conditions: MDA-MB-231, 72 h.
A further series relates to HeLa. Put plainly: Cytotoxicity against human HeLa cells assessed as cell growth inhibition measured after 72 hrs by MTT assay. As to conditions: pooled result: one value given for 3 cell lines, strains, targets or settings. The format is functional, cell-based.
For series [20], the system named is HepG2. In words: Cytotoxicity against human HepG2 cells assessed as cell growth inhibition measured after 72 hrs by MTT assay. As to conditions: HepG2, 72 h. The format is functional, cell-based.

Some results are limits rather than exact numbers.

Regarding `COc1ccc(NS(=O)(=O)c2ccc3c(c2)c2cc(O)ccc2n3C)c(OC)n1`, the IC50 (in the series on KYSE-510; in the series on KYSE-410; in the series on KYSE-140; with KYSE-30; in series [1]) was 10 nM each time.
For `COc1cc2c(cc1C)c1ccccc1n2CC(O)CN1CCN(C)CC1` (stereo unspecified), the IC50 (in series [2]; in the series on SW480; in [3]; with HepG2 [4]) was 3990 nM in each case.
As to `Cc1c2ccncc2c(C(=O)NCc2ccccc2)c2c1[nH]c1ccccc12`, the IC50 in the series with UO-31, with MDA-MB-231 [5], in the series on MCF7 [6], with SNB-75, in the series on SW-620 and in the series on OVCAR-4 was 1710 nM each time. Also, the IC50 with HOP-62, in the series with 786-0, in the series with OVCAR-3 and in the series with Hs-578T was 1710 nM throughout.
Consider `COc1ccc(NS(=O)(=O)c2ccc3c(c2)c2cc(OCCCN4CCN(C)CC4)ccc2n3C)c(OC)n1`, for which the 50% inhibitory concentration (IC50) in the series with MCF7 [6], in the series with HepG2 [7], with MIA PaCa-2 and in the series on Bel-7402 was 5670 nM throughout. Further, the inhibition in vivo at 10 mg/kg in the series on HepG2 [8] amounted to 61.1%.
As to `CCN1CCN(CC(O)Cn2c3ccccc3c3cc(C)c(OC)cc32)CC1` (stereo unspecified), the IC50 (in series [2]; in the series on SW480; in series [3]; in the series on HepG2 [4]) was 3990 nM throughout.
Take `Cc1c2ccncc2c(/C=C/C(C)NC=O)c2c1[nH]c1ccccc12` (stereo unspecified): the IC50 in the series with UO-31, in the series on MDA-MB-231 [5], with MCF7 [6], with SNB-75, in the series on SW-620 and in the series on OVCAR-4 was 1250 nM in each case. Also, the IC50 in the series with HOP-62, with 786-0, in the series with OVCAR-3 and in the series on Hs-578T was 1250 nM each time.
In the case of `CC[n+]1c(/C=C/c2ccc3c(c2)c2ccccc2n3CCCCn2ccnc2)sc2ccccc21`, in [9], the 50% inhibitory concentration (IC50) – broadly, the concentration needed to halve the response being measured – at 72 h is over 18000 nM. The figures for the IC50 with MCF7 [10] and with MDA-MB-231 [11] were 9500 nM and 11400 nM, respectively.
Regarding `COc1ccc2c(c1)c1cc3c(-c4c([N+](=O)[O-])ncn4C)nccc3c(C)c1n2C`, the IC50 with MCF7 [6], in the series on CCRF-CEM and in the series with A549 [12] was 1080 nM each time.
`COc1ccc2[nH]c3c(C)cc(-c4cc(-c5ccc(C(F)(F)F)cc5F)nc(N)n4)c(C)c3c2c1`: the IC50 with COLO 205, in the series with MCF7 [13] and with A549 [14] was 100 nM in each case.
With `O=[N+]([O-])c1coc(C2c3[nH]c4ccccc4c3C(c3cc([N+](=O)[O-])co3)c3[nH]c4ccccc4c32)c1` (stereo unspecified), the IC50 was 3800 nM in [15] and 5240 nM in the series on MCF7 [16]. Moreover, the IC50 at 24 h in series [17] turned out to be 75200 nM.
As for `C[N+](C)(C)CCN1CCN(CCCCCn2c3ccccc3c3cc(Cl)ccc32)CC1`, the IC50 in the series on MCF7 [18] and with MDA-MB-231 [19] was 4400 nM each time.
As to `COc1cc(NC(=O)Nc2cc(C)c3[nH]c4ccc(Br)cc4c3c2C)cc(OC)c1OC`, the IC50 in the series with HeLa, with HepG2 [20], with MCF7 [10] and with MDA-MB-231 [11] was 1930 nM in each case.
